This is an account of results in patent US20240279278A1, “NMU RECEPTOR 2 AGONISTS” (Boehringer Ingelheim International GmbH, priority 2023, published 2024).

Assay type in all cases: cell-based
One assay addresses T1, human NMUR1 receptor (Homo sapiens, UniProt Q9HB89).
T1 construct: expressed in transfected cells; host or cells: CHO-K1
T1 sequence (Q9HB89 1-426): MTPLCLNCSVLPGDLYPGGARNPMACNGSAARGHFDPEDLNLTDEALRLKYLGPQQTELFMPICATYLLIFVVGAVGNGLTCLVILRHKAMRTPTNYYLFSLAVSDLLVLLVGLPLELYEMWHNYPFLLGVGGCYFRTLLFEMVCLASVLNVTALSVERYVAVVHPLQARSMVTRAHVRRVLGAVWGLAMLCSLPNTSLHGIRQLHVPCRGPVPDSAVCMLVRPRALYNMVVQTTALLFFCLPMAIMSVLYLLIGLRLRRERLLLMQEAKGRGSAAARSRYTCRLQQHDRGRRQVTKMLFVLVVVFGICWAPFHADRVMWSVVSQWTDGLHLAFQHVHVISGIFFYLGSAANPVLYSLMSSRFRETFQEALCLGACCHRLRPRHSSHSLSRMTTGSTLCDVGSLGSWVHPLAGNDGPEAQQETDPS
The assay is described as follows: IP1 Gq HTRF assay, activation of human NMUR1 in buffer. Conditions: CHO-K1 cells expressing human NMUR1, stimulation buffer with 0.1% BSA; read-out: EC50 (hNMUR1) buffer. Summed up: (§1)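 CHO-K1 cells stably expressing human NMUR1 or NMUR2, seeded 24 h before assay, stimulated with peptide agonists (8-point dose-response, 1% DMSO final) in HEPES/HBSS buffer with 50 mM LiCl and 0.1% BSA, pH 7.4, 1 h at 37 °C. IP1 accumulation read by HTRF competition (665/620 nm); EC50 from 4-parameter sigmoidal fit.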

For assay [1], the target named is T2, human NMUR2 receptor (Homo sapiens, UniProt Q9GZQ4). Description: IP1 Gq HTRF assay, activation of human NMUR2 in buffer. The arrangement: expressed in transfected cells; host or cells: CHO-K1. To be noted: CHO-K1 cells expressing human NMUR2, stimulation buffer with 0.1% BSA; read-out: EC50 (hNMUR2) buffer. The procedure, abridged:
as §1
Background: TR-FRET usually uses a lanthanide donor and a delayed reading to cut background.

The target in assay [2] is T2, human NMUR2 receptor. Description: IP1 Gq HTRF assay, activation of human NMUR2 in human plasma. The arrangement: expressed in transfected cells; host or cells: CHO-K1. To be noted: CHO-K1 cells expressing human NMUR2, 100% human plasma; read-out: EC50 (hNMUR2) human plasma. Summed up:
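CHO-K1 cells stably expressing human NMUR2 exposed to peptide agonists (8-point dose-response) in 100% human plasma with 50 mM LiCl, 1% DMSO, for 1 h at 37° C. IP1 accumulation read by HTRF competition (665/620 nm ratio). EC50 from 4-parameter sigmoidal fit.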

Starred links: 1 amine or outer side, 2 acyl side, 3 side chain; linkers in the order of their positions; H or OH if unused. Non-standard residues stand in square brackets, D forms with d. Residues, ends and D or L forms follow the SMILES beside them. *: point of attachment. Pipz(1-CH2CO,4-CH2CH2NH) = O=C(CN1CCN(CCN[*:1])CC1)[*:2]; C18 diacid = O=C(O)CCCCCCCCCCCCCCCCC(=O)*; γGlu = O=C(O)[C@H](CCC(=O)[*:2])N[*:1]; 3Pal = N[C@@H](Cc1cccnc1)C(=O)O; 4Pal = N[C@@H](Cc1ccncc1)C(=O)O; NMeL = CN[C@@H](CC(C)C)C(=O)O; NMeA = CN[C@@H](C)C(=O)O; Nle = CCCC[C@H](N)C(=O)O; Sar = CNCC(=O)O

T2 sequence (Q9GZQ4 whole entry): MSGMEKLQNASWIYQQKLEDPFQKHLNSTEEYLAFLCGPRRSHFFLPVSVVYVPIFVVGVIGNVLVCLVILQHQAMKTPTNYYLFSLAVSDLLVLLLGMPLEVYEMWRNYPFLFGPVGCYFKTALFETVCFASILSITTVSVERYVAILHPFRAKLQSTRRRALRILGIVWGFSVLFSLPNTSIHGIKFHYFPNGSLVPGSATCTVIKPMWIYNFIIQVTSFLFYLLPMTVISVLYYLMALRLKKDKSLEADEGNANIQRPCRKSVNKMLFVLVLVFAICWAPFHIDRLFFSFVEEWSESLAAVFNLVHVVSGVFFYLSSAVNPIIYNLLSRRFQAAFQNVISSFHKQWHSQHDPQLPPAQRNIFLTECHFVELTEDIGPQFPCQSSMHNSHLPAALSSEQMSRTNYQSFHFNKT

For `CCCC[C@H](NC(=O)[C@H](CC(C)C)N(C)C(=O)[C@H](Cc1ccccc1)NC(=O)[C@H](Cc1ccc(O)cc1)NC(=O)CN1CCN(CCNC(=O)CN(C)C(=O)CN(C)C(=O)CN(C)C(=O)CN(C)C(=O)CN(C)C(=O)CN(C)C(=O)CN(C)C(=O)CN(C)C(=O)CN(C)C(=O)CN(C)C(=O)CN(C)C(=O)CN(C)C(=O)CN(C)C(=O)CN(C)C(=O)CN(C)C(=O)CC[C@H](NC(=O)CC[C@H](NC(=O)CC[C@H](NC(=O)CCCCCCCCCCCCCCCCC(=O)O)C(=O)O)C(=O)O)C(=O)O)CC1)C(=O)N[C@@H](Cc1cccnc1)C(=O)N(C)[C@@H](C)C(=O)N[C@@H](CCCNC(=N)N)C(=O)NCC(N)=O` [Compound 57, C18DA-gGlu3-Sar15-AEPipAc-Tyr-Phe-NMeLeu-Nle-3Pal-NMeAla-Arg-Gly-NH2] ({C18 diacid-γGlu-γGlu-γGlu}-[Sar][Sar][Sar][Sar][Sar][Sar][Sar][Sar][Sar][Sar][Sar][Sar][Sar][Sar][Sar][Pipz(1-CH2CO,4-CH2CH2NH)]YF[NMeL][Nle][3Pal][NMeA]RG-NH2), the EC50 (in general, the concentration at which the effect is half-maximal) at human NMUR1 receptor was over 1000 nM; at human NMUR2 receptor [1], 110 nM; on human NMUR2 receptor [2], 509 nM.

For `CCCC[C@H](NC(=O)[C@H](CC(C)C)N(C)C(=O)[C@H](Cc1ccccc1)NC(=O)[C@H](Cc1ccc(O)cc1)NC(=O)CN1CCN(CCNC(=O)CN(C)C(=O)CN(C)C(=O)CN(C)C(=O)CN(C)C(=O)CN(C)C(=O)CN(C)C(=O)CN(C)C(=O)CN(C)C(=O)CN(C)C(=O)CN(C)C(=O)CN(C)C(=O)CN(C)C(=O)CN(C)C(=O)CN(C)C(=O)CN(C)C(=O)CC[C@H](NC(=O)CC[C@H](NC(=O)CC[C@H](NC(=O)CCCCCCCCCCCCCCCCC(=O)O)C(=O)O)C(=O)O)C(=O)O)CC1)C(=O)N[C@@H](Cc1ccncc1)C(=O)N(C)[C@@H](C)C(=O)N[C@@H](CCCNC(=N)N)C(=O)NCC(N)=O` [Compound 58, C18DA-gGlu3-Sar15-AEPipAc-Tyr-Phe-NMeLeu-Nle-4Pal-NMeAla-Arg-Gly-NH2] ({C18 diacid-γGlu-γGlu-γGlu}-[Sar][Sar][Sar][Sar][Sar][Sar][Sar][Sar][Sar][Sar][Sar][Sar][Sar][Sar][Sar][Pipz(1-CH2CO,4-CH2CH2NH)]YF[NMeL][Nle][4Pal][NMeA]RG-NH2), the EC50 at human NMUR1 receptor is over 1000 nM; on human NMUR2 receptor [1], 140 nM; at human NMUR2 receptor [2], 709 nM.

As to `CCCC[C@H](NC(=O)[C@H](CC(C)C)N(C)C(=O)[C@H](Cc1ccccc1)NC(=O)[C@H](Cc1ccc(O)cc1)NC(=O)CN1CCN(CCNC(=O)CN(C)C(=O)CN(C)C(=O)CN(C)C(=O)CN(C)C(=O)CN(C)C(=O)CN(C)C(=O)CN(C)C(=O)CN(C)C(=O)CN(C)C(=O)CN(C)C(=O)CN(C)C(=O)CN(C)C(=O)CC[C@H](NC(=O)CC[C@H](NC(=O)CC[C@H](NC(=O)CCCCCCCCCCCCCCCCCCC(=O)O)C(=O)O)C(=O)O)C(=O)O)CC1)C(=O)N[C@@H](CCN)C(=O)N(C)[C@@H](C)C(=O)N[C@@H](CCCNC(=N)N)C(=O)NCC(N)=O` [Compound 59, C20DA-gGlu3-Sar12-AEPipAc-Tyr-Phe-NMeLeu-Nle-Dbu-NMeAla-Arg-Gly-NH2], the values for the EC50 at human NMUR1 receptor, on human NMUR2 receptor [1] and at human NMUR2 receptor [2] were over 1000 nM, 5 nM and 12.1 nM, respectively.

`CCCC[C@H](NC(=O)[C@H](CC(C)C)N(C)C(=O)[C@H](Cc1ccccc1)NC(=O)[C@H](Cc1ccc(O)cc1)NC(=O)CN1CCN(CCNC(=O)CN(C)C(=O)CN(C)C(=O)CN(C)C(=O)CN(C)C(=O)CN(C)C(=O)CN(C)C(=O)CN(C)C(=O)CN(C)C(=O)CN(C)C(=O)CC[C@H](NC(=O)CC[C@H](NC(=O)CC[C@H](NC(=O)CCCCCCCCCCCCCCCCCCC(=O)O)C(=O)O)C(=O)O)C(=O)O)CC1)C(=O)N[C@@H](CCN)C(=O)N1CCC[C@H]1C(=O)N[C@@H](CCCNC(=N)N)C(=O)NCC(N)=O` [Compound 60, C20DA-gGlu3-Sar9-AEPipAc-Tyr-Phe-NMeLeu-Nle-Dbu-Pro-Arg-Gly-NH2] (HELM PEPTIDE1{[O=C(O)CCCCCCCCCCCCCCCCCCC(=O)[*:2]].[gGlu].[gGlu].[gGlu].[Sar].[Sar].[Sar].[Sar].[Sar].[Sar].[Sar].[Sar].[Sar].[O=C(CN1CCN(CCN[*:1])CC1)[*:2]].Y.F.[meL].[Nle].[Dab].P.R.G.[am]}$$$$V2.0): the figures for the EC50 on human NMUR1 receptor, on human NMUR2 receptor [1] and at human NMUR2 receptor [2] were 540 nM, 4 nM and 13.9 nM, respectively.

On to `CCCC[C@H](NC(=O)[C@H](CC(C)C)N(C)C(=O)[C@H](Cc1ccccc1)NC(=O)[C@H](Cc1ccc(O)cc1)NC(=O)CN1CCN(CCNC(=O)CN(C)C(=O)CN(C)C(=O)CN(C)C(=O)CN(C)C(=O)CN(C)C(=O)CN(C)C(=O)CN(C)C(=O)CN(C)C(=O)CN(C)C(=O)CC[C@H](NC(=O)CC[C@H](NC(=O)CC[C@H](NC(=O)CCCCCCCCCCCCCCCCCCC(=O)O)C(=O)O)C(=O)O)C(=O)O)CC1)C(=O)N[C@@H](CCN)C(=O)N(C)[C@@H](C)C(=O)N[C@@H](CCCNC(=N)N)C(=O)NCC(N)=O` [Compound 61, C20DA-gGlu3-Sar9-AEPipAc-Tyr-Phe-NMeLeu-Nle-Dbu-NMeAla-Arg-Gly-NH2] (HELM PEPTIDE1{[O=C(O)CCCCCCCCCCCCCCCCCCC(=O)[*:2]].[gGlu].[gGlu].[gGlu].[Sar].[Sar].[Sar].[Sar].[Sar].[Sar].[Sar].[Sar].[Sar].[O=C(CN1CCN(CCN[*:1])CC1)[*:2]].Y.F.[meL].[Nle].[Dab].[meA].R.G.[am]}$$$$V2.0), for which the figures for the EC50 on human NMUR1 receptor, at human NMUR2 receptor [1] and on human NMUR2 receptor [2] were over 1000 nM, 4.6 nM and 14.1 nM, respectively.

Turning to `CCCC[C@H](NC(=O)[C@H](CC(C)C)N(C)C(=O)[C@H](Cc1ccccc1)NC(=O)[C@H](Cc1ccc(O)cc1)NC(=O)CN1CCN(CCNC(=O)CN(C)C(=O)CN(C)C(=O)CN(C)C(=O)CN(C)C(=O)CN(C)C(=O)CN(C)C(=O)CN(C)C(=O)CN(C)C(=O)CN(C)C(=O)CC[C@H](NC(=O)CC[C@H](NC(=O)CC[C@H](NC(=O)CCCCCCCCCCCCCCCCCCC(=O)O)C(=O)O)C(=O)O)C(=O)O)CC1)C(=O)N[C@@H](CCCNC(=N)N)C(=O)N(C)[C@@H](C)C(=O)N[C@@H](CCCNC(=N)N)C(=O)NCC(N)=O` [Compound 62, C20DA-gGlu3-Sar9-AEPipAc-Tyr-Phe-NMeLeu-Nle-Arg-NMeAla-Arg-Gly-NH2] (HELM PEPTIDE1{[O=C(O)CCCCCCCCCCCCCCCCCCC(=O)[*:2]].[gGlu].[gGlu].[gGlu].[Sar].[Sar].[Sar].[Sar].[Sar].[Sar].[Sar].[Sar].[Sar].[O=C(CN1CCN(CCN[*:1])CC1)[*:2]].Y.F.[meL].[Nle].R.[meA].R.G.[am]}$$$$V2.0), the EC50 on human NMUR1 receptor stood at 440 nM; on human NMUR2 receptor [1], 3.1 nM; at human NMUR2 receptor [2], 14.2 nM.

As for `CCCC[C@H](NC(=O)[C@H](CC(C)C)N(C)C(=O)[C@H](Cc1ccccc1)NC(=O)[C@H](Cc1ccc(O)cc1)NC(=O)CN1CCN(CCNC(=O)CN(C)C(=O)CN(C)C(=O)CN(C)C(=O)CN(C)C(=O)CN(C)C(=O)CN(C)C(=O)CC[C@H](NC(=O)CC[C@H](NC(=O)CCCCCCCCCCCCCCCCC(=O)O)C(=O)O)C(=O)O)CC1)C(=O)N[C@@H](CCCNC(=N)N)C(=O)N1CCC[C@H]1C(=O)N[C@@H](CCCNC(=N)N)C(=O)NCC(N)=O` [Compound 71, C18DA-gGlu2-Sar6-AEPipAc-Tyr-Phe-NMeLeu-Nle-Arg-Pro-Arg-Gly-NH2] (HELM PEPTIDE1{[O=C(O)CCCCCCCCCCCCCCCCC(=O)[*:2]].[gGlu].[gGlu].[Sar].[Sar].[Sar].[Sar].[Sar].[Sar].[O=C(CN1CCN(CCN[*:1])CC1)[*:2]].Y.F.[meL].[Nle].R.P.R.G.[am]}$$$$V2.0), the EC50 was 130 nM at human NMUR1 receptor, 1.5 nM on human NMUR2 receptor [1] and 14.5 nM at human NMUR2 receptor [2].

For `CCCC[C@H](NC(=O)[C@H](CC(C)C)N(C)C(=O)[C@H](Cc1ccccc1)NC(=O)[C@H](Cc1ccc(O)cc1)NC(=O)CN1CCN(CCNC(=O)CN(C)C(=O)CN(C)C(=O)CN(C)C(=O)CN(C)C(=O)CN(C)C(=O)CN(C)C(=O)CN(C)C(=O)CN(C)C(=O)CN(C)C(=O)CC[C@H](NC(=O)CC[C@H](NC(=O)CC[C@H](NC(=O)CCCCCCCCCCCCCCCCC(=O)O)C(=O)O)C(=O)O)C(=O)O)CC1)C(=O)N[C@@H](CCCNC(=N)N)C(=O)N(C)[C@@H](C)C(=O)N[C@@H](CCCNC(=N)N)C(=O)NCC(N)=O` [Compound 73, C18DA-gGlu3-Sar9-AEPipAc-Tyr-Phe-NMeLeu-Nle-Arg-NMeAla-Arg-Gly-NH2] (HELM PEPTIDE1{[O=C(O)CCCCCCCCCCCCCCCCC(=O)[*:2]].[gGlu].[gGlu].[gGlu].[Sar].[Sar].[Sar].[Sar].[Sar].[Sar].[Sar].[Sar].[Sar].[O=C(CN1CCN(CCN[*:1])CC1)[*:2]].Y.F.[meL].[Nle].R.[meA].R.G.[am]}$$$$V2.0), the EC50 at human NMUR1 receptor turned out to be 540 nM; on human NMUR2 receptor [1], 1.9 nM; at human NMUR2 receptor [2], 15.6 nM.
